Here are results for three compounds from US8097624B2, “Cycloalkyl derivatives of 3-hydroxy-4-pyridinones” (Apotex Inc., priority 2006, dated 2012).

SMILES strings stand for the structures. “And” between values parts separate entries of the source, which are not always exact repeats. Identical values can stand only once.

Data set [1] in a line: Distribution coefficient determination (D7.4), 1-octanol / MOPS buffer. In kind it is physicochemical. The following applies: 1-octanol / MOPS buffer pH 7.4. How it is done:
MOPS buffer (50 mM, pH=7.4) and 1-octanol were used as the aqueous phase and the organic phase, respectively, for distribution coefficient determinations. The MOPS buffer and 1-octanol were pre-saturated with each other before use.
In a typical experiment, an organic stock solution of Apo6618 (1-cyclopropyl-3-hydroxy-6-methyl-4-oxo-1,4-dihydro-pyridine-2-carboxylic acid cyclopropylamide) was prepared by weighing out 0.50 mg of the compound into a 10-mL volumetric flask and bringing to volume with 1-octanol. The solution was then sonicated for 60 minutes so that the sample could dissolve completely. The concentration of the stock solution was calculated as C^0org=2.0×10^−4 M. The organic standard solution of Apo6618 with 2.0×10^−5 M was prepared in a 10-mL volumetric flask by 10 times dilution of the stock solution with 1-octanol. The sample solution was prepared in a 10-mL volumetric flask. The stock sample solution (3 ml) was pipetted into the flask followed by the addition of MOPS buffer (3 ml). The standard and sample solutions were then vortexed for 2 hours. After vortexing, the solutions were transferred to test tubes and centrifuged at 4000 rpm for 15 minutes. UV-Vis spectra were recorded for the standard solution and the organic (top) phase of the sample solution at 22° C. The distribution coefficient, D7.4, was calculated using the following equation: D7.4=[Aorg/(C^0orgεorg−Aorg)]×(Vaqu/Vorg)
Where εorg=the molar extinction coefficient of the peak wavelength (λmax) obtained from the UV-Vis spectrum of the organic standard solution; Aorg=absorbance of the organic phase in the sample solution at the same λmax; C^0org=the concentration of the stock solution; Vaqu=the volume of MOPS buffer in the sample solution; Vorg=the volume of the stock solution in the sample solution.

The nature of data set [2]: pKa determination by potentiometric or spectrophotometric titration. The settings on record: titration in 0.1 M NaCl at 22° C. In kind it is physicochemical. How it is done: The pKa values of ligands were determined by potentiometric titration when a ligand concentration greater than 1×10^−2 M in water could be prepared. In a typical experiment, the sample solution (2.67×10^−2 M) was prepared by the following method: Apo6619 (92.6 mg) was weighed into a 25-ml beaker, followed by the addition of 0.1 M NaCl (15 ml). The mixture was sonicated for 10 minutes to give a clear colorless solution. Nitrogen gas was then allowed to bubble through the solution. 1.000 N Hydrochloric acid (624 μl, 1.5 equivalent) was added to the solution to give pH 1.88. The solution was allowed to equilibrate at 22° C. for 60 minutes.
The solution was then titrated against 1.000 N NaOH at 22° C. to reach pH 11.8. For each addition of base, the solution was allowed to equilibrate until a constant pH reading was reached. The volume of the base added and the pH reading were recorded for each measurement. 137 measurements were taken to finish the experiment.
The data set of pH vs. base volume was analyzed using Hyperquad 2000 (Version 2.1, Peter Gans, University of Leeds).
The pKa values of ligands can be determined by spectrophotometric titration when both the conjugated acid and base absorb in the UV-Visible region. In a typical experiment, the sample solution was prepared by the following method: Apo6617 (0.792 mg) was weighed into an 80-ml beaker, followed by the addition of 0.1 M NaCl (50 ml). The mixture was sonicated for 5 minutes to give a clear colorless solution. Nitrogen gas was allowed to bubble through the solution. 1.000 N NaOH (50 μl) was added to give pH 10.9. The solution was allowed to equilibrate at 22° C. for 1 hour. A sipper system was used for the circulation of the sample solution between the beaker and the flow cell.
The sample solution was titrated against standard hydrochloric acid solutions at 22° C. to reach pH 1.40. After each addition of acid the solution was allowed to equilibrate until a constant pH reading was reached. The pH and the UV-Vis spectrum were recorded for each measurement. The peak wavelengths of the deprotonated species (L^−), the neutral species (LH), and the protonated species (LH2^+) were 314 nm, 281 nm, and 249 nm, respectively. In the region of pH>6, after each addition of acid there was a slight decrease in the absorbance at 314 nm and a slight increase at 281 nm in each spectrum, whereas in the region of pH<5, after each addition of acid there was a slight decrease in the absorbance at 281 nm and a slight increase at 249 nm in each spectrum. The solution was titrated until there was no obvious change in the spectra after several subsequent additions of acid. 116 measurements were taken to finish the experiment.
The resulting data set was then analyzed using pHAB (Peter Gans, University of Leeds).

The next data set has as its system Iron Overloaded Rats. As to the kind of experiment: Second rat study: urinary and fecal iron excretion at 28, 113 and 450 μmoles/kg. The settings on record: n=6/group, mean ± 1SD. The class given is in vivo. How it is done: A second study was conducted to confirm the efficacy results of Apo6619 and Apo6617 observed in the above study and to further characterize the efficacy of these compounds at doses lower than 450 μmol/kg. The study was conducted in two separate groups of iron overloaded rats. The method of iron overloading, preparation of dosing solutions and assessment of efficacy in these rats was similar to that described in the above study.
The first group of rats (n=6) were treated with Apo6619 consecutively at doses of 28, 113 and 450 μmoles/kg. Similarly, the second group of rats (also n=6) was treated with Apo6617 at these same three doses. Similar to the previous study, both Apo6619 and Apo6617 produced an increase in urinary iron excretion at the 450 μmoles/kg dose (Apo6619: 11±3 at baseline to 335±76 1-day post-Apo6619, p=0.0001; Apo6617: 14±4 at baseline to 183±20 1-day post-Apo6617, p=0.0003). […] At 28 μmoles/kg, only Apo6617 produced an increase in iron excretion (p=0.01) above baseline. However, the magnitude of the increased excretion was small for both Apo6619 and Apo6617.

`Cc1cc(=O)c(O)c(C(=O)NC2CC2)n1C` [Apo6617, 3-Hydroxy-1,6-dimethyl-4-oxo-1,4-dihydro-pyridine-2-carboxylic Acid Cyclopropylamide] showed a D7.4 in data set [1] of 0.099. In data set [2], the “pKas (higher value, phenolic C3 OH)” value is 8.6 and 8.5; the “pKas (lower value, LH2+)” value is 2.5 and 2.4. The “Iron excretion, Urine (1 day post-chelator)” value (“Iron excretion, Urine” for short) in the data set with Iron Overloaded Rats (28 μmol/kg) worked out at 24 ± 6 µg/day/kg. For the same compound, in the data set with Iron Overloaded Rats (113 μmol/kg), the “Iron excretion, Feces (3 days)” value came to 2411 ± 335 µg/day/kg and the “Iron excretion, Urine” value came to 28 ± 8 µg/day/kg. Moreover, in the data set with Iron Overloaded Rats (450 μmol/kg), the “Iron excretion, Feces (3 days)” value was 3228 ± 437 µg/day/kg and the “Iron excretion, Urine” value came to 183 ± 20 µg/day/kg.

In turn, `CNC(=O)c1c(O)c(=O)cc(C)n1C1CC1` [Apo6619, 1-Cyclopropyl-3-hydroxy-6-methyl-4-oxo-1,4-dihydro-pyridine-2-carboxylic Acid Methylamide] showed a D7.4 in data set [1] of 0.109. Further, the “Iron excretion, Urine” value was 14 ± 4 µg/day/kg in the data set on Iron Overloaded Rats (28 μmol/kg); 51 ± 15*τ μg/day/kg in the data set on Iron Overloaded Rats (113 μmol/kg); 335±76 μg/day/kg and 335 ± 76*τ μg/day/kg in the data set with Iron Overloaded Rats (450 μmol/kg). For the same compound, the “Iron excretion, Feces (3 days)” value in the data set on Iron Overloaded Rats (113 μmol/kg) came out at 3033 ± 1076 µg/day/kg; in the data set on Iron Overloaded Rats (450 μmol/kg) it was 3831 ± 790 µg/day/kg.

Turning to `Cc1c(O)c(=O)ccn1C` [deferiprone, 1,2-dimethyl-3-hydroxy-4-pyridinone, reference compound], in data set [2], the “pKas (higher value, phenolic C3 OH)” value is recorded as 9.64 and the “pKas (lower value, LH2+)” value is listed as 3.56.
